This passage reports IC50 and Ki results from US20110112097A1, “Substituted imidazoline-2,4-diones, process for preparation thereof, medicaments comprising these compounds and use thereof” (SANOFI-AVENTIS, priority 2008, published 2011).

Assay [1] deals with T1, hCB2R (Homo sapiens, UniProt P34972).
T1 construct: expressed in transfected cells; host or cells: HEK293
Nature of the assay: In vitro functional assay with recombinant cells (FLIPR, intracellular Ca2+), CB2. The format is cell-based. As to conditions: recombinant HEK293 cells expressing CB2 and G-protein Galpha16; 20 min preincubation, then reference agonist; Ca2+ change (Fluo-4). The protocol: (§1) In vitro functional assays with recombinant cells:
(§2) Function-testing assays were performed by means of the FLIPR technique (“Fluorometric Imaging Plate Reader”, Molecular Devices Corp.).
(§3) To this end, ligand-induced changes in the intracellular concentration of Ca^2+ in recombinant HEK293 cells, which expressed both a cannabinoid receptor (CB1 or CB2) and G-protein Galpha16, were determined. For the studies, cells were sown into 96-well microtiter plates (60 000 cells/well) and left to grow overnight. The medium was removed and the cells were incubated in buffer which contained the fluorescent dye Fluo-4. After this loading with dye, the cells were washed, test substance was added dissolved in buffer, the mixture was incubated for 20 minutes, a known cannabinoid receptor agonist as a reference agonist was added in buffer and, finally, the changes in the intracellular Ca^2+ concentration were measured in the FLIPR unit.
Results were presented as the percentage change relative to the control (0%: analogous experiment without test substance and without reference agonist, i.e. only with buffer; 100%: analogous experiment without test substance, but with reference agonist in excess), and used to calculate dose/action curves, and IC50 values were determined

The target of assay [2] is T2, hCB1R (Homo sapiens, UniProt P21554). Nature of the assay: Binding to the CB1 receptor ([3H]-SR141716A displacement). As to the method:
Binding to the CB1 Receptor:
Test compounds: The compounds (3 μl, 10 mM, 100% DMSO), pipetted into 96-well PP microtiter plates, were diluted with 27 μl of 100% DMSO (dimethyl sulfoxide). Proceeding from this solution, further 3-fold dilution steps were undertaken by transferring 10 μl in each case to a new PP microtiter plate and adding a further 20 μl of 100% DMSO. In each case 6 μl of these solutions were transferred into new 96-well PP microtiter plates and made up with 144 μl of assay buffer. The end concentrations ranged from 10 μM to 0.005 μM.
Negative control: AM 251, dissolved in assay buffer with 1% DMSO, was added to the dilution series in the microtiter plates as a control. The end concentration was 1 μM.
Blank control: assay buffer with 1% DMSO was added to the dilution series of the microtiter plates as a blank control.
Summary of the Assay Parameters:
High control: ^3H binding without addition of the compound Low control: ^3H binding in the presence of 1 μM AM 251
The values were calculated using the corrected raw data.
The values reported were obtained as average values of a double determination. The IC50 values were calculated from the measurements with the program Xlfit, formula 205. Ki values were obtained from the IC50 and Kd values utilizing the Cheng-Prusoff equation:
[formula] • Literature: Cheng, Y.-C., and Prusoff, W. H. (1973) Biochem. Pharmacol 22, 3099-3108

The target of assay [3] is T2, hCB1R. The assay is described as follows: In vitro functional assay with recombinant cells (FLIPR, intracellular Ca2+), CB1. The format is cell-based. Set-up: expressed in transfected cells; host or cells: HEK293. As to conditions: recombinant HEK293 cells expressing CB1 and G-protein Galpha16; 20 min preincubation, then reference agonist; Ca2+ change (Fluo-4); read-out: hCB1R: FLIPR; IC50. The protocol:
as §1, §2, §3

T2 sequence (P21554 whole entry): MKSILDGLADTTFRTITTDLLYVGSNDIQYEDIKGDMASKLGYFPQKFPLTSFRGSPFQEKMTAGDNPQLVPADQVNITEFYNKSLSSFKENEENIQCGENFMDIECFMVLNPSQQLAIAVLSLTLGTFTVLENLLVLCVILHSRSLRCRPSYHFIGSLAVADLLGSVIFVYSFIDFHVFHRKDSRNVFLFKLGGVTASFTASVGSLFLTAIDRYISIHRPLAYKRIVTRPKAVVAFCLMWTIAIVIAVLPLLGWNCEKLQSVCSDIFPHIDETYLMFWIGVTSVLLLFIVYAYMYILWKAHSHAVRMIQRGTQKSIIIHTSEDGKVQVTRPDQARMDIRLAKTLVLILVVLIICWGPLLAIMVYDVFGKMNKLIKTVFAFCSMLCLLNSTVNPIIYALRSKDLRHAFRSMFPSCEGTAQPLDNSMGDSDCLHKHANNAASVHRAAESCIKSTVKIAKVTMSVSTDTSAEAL
T1 sequence (P34972 whole entry): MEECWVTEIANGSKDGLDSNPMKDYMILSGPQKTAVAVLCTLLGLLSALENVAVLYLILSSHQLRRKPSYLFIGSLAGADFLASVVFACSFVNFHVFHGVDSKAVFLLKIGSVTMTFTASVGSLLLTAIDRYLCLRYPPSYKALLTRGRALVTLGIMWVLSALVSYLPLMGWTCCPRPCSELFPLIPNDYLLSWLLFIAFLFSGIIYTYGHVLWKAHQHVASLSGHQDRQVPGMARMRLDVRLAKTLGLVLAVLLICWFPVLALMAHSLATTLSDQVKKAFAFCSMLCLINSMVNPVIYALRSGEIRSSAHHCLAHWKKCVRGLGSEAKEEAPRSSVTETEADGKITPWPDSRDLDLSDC

For `CC1(C)C(=O)N(c2ccc(C#N)c(C(F)(F)F)c2)C(=O)N1Cc1ccc(C(=O)c2ccccc2)cc1` [Example 132, 4-[3-(4-benzoylbenzyl)-4,4-dimethyl-2,5-dioxo-imidazolidin-1-yl]-2-trifluoromethylbenzonitrile], the IC50 was over 10000 nM in assay [1] and 103 nM in assay [3]. Also, in assay [2], the Ki (usually a measure of affinity in units of concentration, obtained from inhibition or displacement) turned out to be 74 nM.
